Values quoted from earlier work in patent US9114169B2, “Sweetening and healthy compositions and methods associated therewith” (priority 2013, dated 2015).

Assays:
[1] = fold greater than resveratrol
[2] = compared with resveratrol
[3] = fold longer than resveratrol
[4] = compared with resveratrol; remark: listed apart in the source

In the case of `COc1cc(/C=C/c2ccc(O)cc2)cc(OC)c1` [Pterostilbene, pterostilbene], the “cellular uptake relative to resveratrol” value [1] is given as 2-4 times, the “absorption relative to resveratrol” value [2] is given as “greater absorption” and the “half-life in the human body relative to resveratrol” value [3] is given as “seven”. The “metabolic stability relative to resveratrol” value [4] was “greater”.
